Molecular target: TBK1 (Homo sapiens (Human), UniProt Q9UHD2)
Assay: TBK1 low ATP kinase assay (in vitro assay 1)
Assay type: biochemical
Conditions: in vitro assay 1, read-out: TBK1 low ATP kinase assay IC50

TBK1, sequence (Q9UHD2 whole entry): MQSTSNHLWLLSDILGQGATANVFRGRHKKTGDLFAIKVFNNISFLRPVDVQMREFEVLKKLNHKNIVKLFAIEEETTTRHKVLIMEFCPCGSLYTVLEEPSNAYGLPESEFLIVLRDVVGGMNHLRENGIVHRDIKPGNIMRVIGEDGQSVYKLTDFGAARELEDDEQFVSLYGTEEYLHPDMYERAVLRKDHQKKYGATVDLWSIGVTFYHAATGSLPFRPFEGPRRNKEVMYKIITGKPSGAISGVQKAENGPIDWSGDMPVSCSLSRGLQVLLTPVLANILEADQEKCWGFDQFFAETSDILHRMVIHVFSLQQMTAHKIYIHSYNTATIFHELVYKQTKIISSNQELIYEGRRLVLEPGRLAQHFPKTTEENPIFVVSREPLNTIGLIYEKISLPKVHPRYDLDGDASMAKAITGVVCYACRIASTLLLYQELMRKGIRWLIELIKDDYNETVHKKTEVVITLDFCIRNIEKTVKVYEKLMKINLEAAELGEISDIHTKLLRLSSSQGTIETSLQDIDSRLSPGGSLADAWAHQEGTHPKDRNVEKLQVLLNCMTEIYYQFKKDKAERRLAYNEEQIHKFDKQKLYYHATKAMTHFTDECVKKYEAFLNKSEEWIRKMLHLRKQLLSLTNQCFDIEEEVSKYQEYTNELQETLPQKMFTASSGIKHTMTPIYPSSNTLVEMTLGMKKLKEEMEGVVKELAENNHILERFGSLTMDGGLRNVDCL

IC50 [nM]	SMILES
444	COc1cnc(C)cc1-c1ccc2nc(Nc3cc(CN4CCN(C(=O)CC5CC5)CC4)ccn3)[nH]c2c1 [Example 07.04, 2-cyclopropyl-1-{4-[(2-{[6-(5-methoxy-2-methylpyridin-4-yl)-1H-benzimidazol-2-yl]amino}pyridin-4-yl)methyl]piperazin-1-yl}ethanone]
232	COc1cc(-c2ccc3nc(Nc4cc(CN5CCN(C(=O)CC(F)(F)F)CC5)ccn4)[nH]c3c2)c(F)cn1 [Example 03.02, 3,3,3-trifluoro-1-{4-[(2-{[6-(5-fluoro-2-methoxypyridin-4-yl)-1H-benzimidazol-2-yl]amino}pyridin-4-yl)methyl]piperazin-1-yl}propan-1-one]
35.7	CCOc1nccc(-c2ccc3nc(Nc4cc(CN5CCN(C(=O)OC(C)(C)C)CC5)ccn4)[nH]c3c2)n1 [Example 26.01.01, tert-butyl 4-[(2-{[6-(2-ethoxypyrimidin-4-yl)-1H-benzimidazol-2-yl]amino}pyridin-4-yl)methyl]piperazine-1-carboxylate]
2.05	CC(c1ccnc(Nc2nc3ccc(-c4ccncn4)cc3[nH]2)c1)N1CCN(C(=O)C2CC2)CC1 (single isomer, unassigned) [Example 23.05.01.A, cyclopropyl{4-[(1R or 1S)-1-(2-{[6-(pyrimidin-4-yl)-1H-benzimidazol-2-yl]amino}pyridin-4-yl)ethyl]piperazin-1-yl}methanone]
55.8	CCn1cc(-c2ccc3nc(Nc4cc(CN5CCN(C(=O)C6CC6)CC5)ccn4)[nH]c3c2)cn1 [Example 38.03, cyclopropyl{4-[(2-{[6-(1-ethyl-1H-pyrazol-4-yl)-1H-benzimidazol-2-yl]amino}pyridin-4-yl)methyl]piperazin-1-yl}methanone]
154	CC(C)Cc1noc(-c2ccc3nc(Nc4cc(CN5CCN(C(=O)C6CC6)CC5)ccn4)[nH]c3c2)n1 [Example 18.02, cyclopropyl(4-{[2-({6-[3-(2-methylpropyl)-1,2,4-oxadiazol-5-yl]-1H-benzimidazol-2-yl}amino)pyridin-4-yl]methyl}piperazin-1-yl)methanone]
19	CC(c1ccnc(Nc2nc3ccc(-c4cnn(C(C)C5CC5)c4)cc3[nH]2)c1)N1CCN(C(=O)CC(F)(F)F)CC1 (single isomer, unassigned) [Example 74.02, 1-{4-[(1R or 1S)-1-{2-[(6-{1-[(1RS)-1-cyclopropylethyl]-1H-pyrazol-4-yl}-1H-benzimidazol-2-yl)amino]pyridin-4-yl}ethyl]piperazin-1-yl}-3,3,3-trifluoropropan-1-one]
102	Clc1ccccc1N1CCN(Cc2ccnc(Nc3nc4ccc(-c5nc(C6CC6)no5)cc4[nH]3)c2)CC1 [Example 17.07, N-(4-{[4-(2-chlorophenyl)piperazin-1-yl]methyl}pyridin-2-yl)-6-(3-cyclopropyl-1,2,4-oxadiazol-5-yl)-1H-benzimidazol-2-amine]
94	O=C(CC(F)(F)F)N1CCN(Cc2ccnc(Nc3nc4ccc(-c5ccn(CC6CC6)c(=O)c5)cc4[nH]3)c2)CC1 [Example 44.01, 1-(cyclopropylmethyl)-4-{2-[(4-{[4-(3,3,3-trifluoropropanoyl)piperazin-1-yl]methyl}pyridin-2-yl)amino]-1H-benzimidazol-6-yl}pyridin-2(1H)-one]
52	COc1c(-c2ccc3nc(Nc4cc(CN5CCN(C(=O)C6(C(F)(F)F)CC6)CC5)ccn4)[nH]c3c2)ncnc1N(C)CC1CC1 [Example 110.03, [4-({2-[(6-{6-[(cyclopropylmethyl)(methyl)amino]-5-methoxypyrimidin-4-yl}-1H-benzimidazol-2-yl)amino]pyridin-4-yl}methyl)piperazin-1-yl][1-(trifluoromethyl)cyclopropyl]methanone]
47	COc1cnc(OCC2CC2)nc1-c1ccc2nc(Nc3cc(CN4CCN(C(=O)CC(F)(F)F)CC4)ccn3)[nH]c2c1 [Example 64.01.03, 1-(4-{[2-({6-[2-(cyclopropylmethoxy)-5-methoxypyrimidin-4-yl]-1H-benzimidazol-2-yl}amino)pyridin-4-yl]methyl}piperazin-1-yl)-3,3,3-trifluoropropan-1-one]
283	COc1ccncc1-c1ccc2nc(Nc3cc(CN4CCN(C(=O)CC5CC5)CC4)ccn3)[nH]c2c1 [Example 14.02, 2-cyclopropyl-1-{4-[(2-{[6-(4-methoxypyridin-3-yl)-1H-benzimidazol-2-yl]amino}pyridin-4-yl)methyl]piperazin-1-yl}ethanone]
4.15	Cc1cc(-c2ccc3nc(Nc4cc(C(C)N5CCN(C(=O)C6CCC6)CC5)ccn4)[nH]c3c2)ncn1 (single isomer, unassigned) [Example 30.03.02.A, cyclobutyl{4-[(1R or 1S)-1-(2-{[6-(6-methylpyrimidin-4-yl)-1H-benzimidazol-2-yl]amino}pyridin-4-yl)ethyl]piperazin-1-yl}methanone]
2	CC(c1ccnc(Nc2nc3ccc(-c4cnn(CC5CC5(C)C)c4)cc3[nH]2)c1)N1CCN(C(=O)C2CC2)CC1 (single isomer, unassigned) [Example 67.03, cyclopropyl{4-[(1R or 1S)-1-(2-{[6-(1-{[(1RS)-2,2-dimethylcyclopropyl]methyl}-1H-pyrazol-4-yl)-1H-benzimidazol-2-yl]amino}pyridin-4-yl)ethyl]piperazin-1-yl}methanone]
770	Cn1ncnc1-c1ccc2nc(Nc3cc(CN4CCN(C(=O)C5CC5)CC4)ccn3)[nH]c2c1 [Example 41.03, cyclopropyl{4-[(2-{[6-(1-methyl-1H-1,2,4-triazol-5-yl)-1H-benzimidazol-2-yl]amino}pyridin-4-yl)methyl]piperazin-1-yl}methanone]
43.8	CC(C)(C)OC(=O)N1CCN(Cc2ccnc(Nc3nc4ccc(-c5cc(C6=CCOCC6)ncn5)cc4[nH]3)c2)CC1 [Example 198.01, tert-butyl 4-{[2-({6-[6-(3,6-dihydro-2H-pyran-4-yl)pyrimidin-4-yl]-1H-benzimidazol-2-yl}amino)pyridin-4-yl]methyl}piperazine-1-carboxylate]
504	COc1cnnc(-c2ccc3nc(Nc4cc(CN5CCN(C(=O)C6CC6)CC5)ccn4)[nH]c3c2)c1 [Example 47.02, cyclopropyl{4-[(2-{[6-(5-methoxypyridazin-3-yl)-1H-benzimidazol-2-yl]amino}pyridin-4-yl)methyl]piperazin-1-yl}methanone]
21	CC(O)c1cc(-c2ccc3nc(Nc4cc(CN5CCN(C(=O)OC(C)(C)C)CC5)ccn4)[nH]c3c2)ncn1 (racemic) [Example 97.01, (rac)-tert-butyl 4-({2-[(6-{6-[1-hydroxyethyl]pyrimidin-4-yl}-1H-benzimidazol-2-yl)amino]pyridin-4-yl}methyl)piperazine-1-carboxylate]
288	COc1cc(-c2ccc3nc(Nc4cc(CN5CCN(C(=O)CC6CC6)CC5)ccn4)[nH]c3c2)c(F)cn1 [Example 03.04, 2-cyclopropyl-1-{4-[(2-{[6-(5-fluoro-2-methoxypyridin-4-yl)-1H-benzimidazol-2-yl]amino}pyridin-4-yl)methyl]piperazin-1-yl}ethanone]
30	COc1cncnc1-c1ccc2nc(Nc3cc(C(C)N4CCN(C(=O)CC(F)(F)F)CC4)ccn3)[nH]c2c1 (single isomer, unassigned) [Example 35.03.01.B, 3,3,3-trifluoro-1-{4-[(1S or 1R)-1-(2-{[6-(5-methoxypyrimidin-4-yl)-1H-benzimidazol-2-yl]amino}pyridin-4-yl)ethyl]piperazin-1-yl}propan-1-one]
